Source: patent US20130023485A1, “PARENTERAL FORMULATIONS OF PEPTIDES FOR THE TREATMENT OF SYSTEMATIC LUPUS ERYTHEMATOSUS” (Teva Pharmaceutical Industries, Ltd., priority 2003, published 2013)

What was measured:
[1] = Biological activity of chosen Compound 1 formulations
Source text: The pH was adjusted if needed.

[2] = system: TGF-β secretion by PBL of SLE patients; assay: Up-regulation of TGF-β secretion by PBL stimulated with human 16/6Id mAb (ELISA); type: cell-based
Procedure: For this purpose, supernatants were removed from cultures of PBL of various SLE patients following 48 hours incubation with the human 16/6Id mAb in the absence or presence of the peptides hCDR1 or hCDR3. TGF-β was determined by ELISA according to the manufacturer's instructions. Briefly, Maxisorb plates (Nunc) were coated with recombinant human TGFβsRII/Fc chimera (R & D Systems) diluted in PBS (100 ng/ml). After blocking, cell supernatants were added. After 18 hours incubation the detecting biotinylated anti-human TGF-β antibody (R & D Systems) was added. The substrate solution used was the TMB Colour Reagent (Helix Diagnostics) and enzyme activity was evaluated by the MRX ELISA reader using the 570 nm and 630 nm filters.

H-GYYWSWIRQPPGKGEEWIG-OH [Compound 1]
biological activity ([1]; 30% (w/w) PEG 400 formulation): inactive | biological activity ([1]; formulations with acetate buffer and citrate buffer (Mannitol as tonicity agent)): active | biological activity ([1]; the two cyclodextrin formulations (Hydroxypropyl-β-cyclodextrin, Captisol)): equal to the activity of the peptide alone | Up-Regulation of TGF-β % (patients) ([2]; PBL of SLE patients, 48 hours): 100 (19/19) % | secretion of TGF-β ([2]; PBL of one representative SLE patient, FIG. 13): significant up-regulation | Maximum Up-regulation % ([2]; percent secretion above that in the presence of 16/6 Id alone (= 100%)): 305 ± 221%
